Where two headings read alike, the source gives them in different places.
Tests used:
Assay type in all cases: in vivo
[1] = system: Amaranthus retroflexus (AMARE); assay: Pre-emergence herbicidal action against AMARE; conditions: 320 g/ha, visual scoring after about 3 weeks vs untreated controls
How it was run: (§1)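 Seeds sown in pots and covered with soil; WP or EC formulations sprayed onto the soil surface at 600 l/ha water with 0.5% additive, at 320 g/ha or lower. Greenhouse growth for about 3 weeks, then visual scoring as % effect against untreated controls (100% = plants dead).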

[2] = system: Amaranthus retroflexus (AMARE); assay: Post-emergence herbicidal action against AMARE
How it was run: (§2)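 Post-emergence greenhouse spray, one-leaf stage, 600 l/ha water plus 0.5% additive; WP or EC formulations; application rates 320 g/ha or lower. Visual % damage vs untreated controls at ~3 weeks.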

[3] = system: Polygonum convolvulus (POLCO); assay: Post-emergence herbicidal action against POLCO; conditions: dosage 320 g/ha
How it was run: as §2

Zea mays (ZEAMX) [4] = conditions: pre-emergence, crop plant compatibility, in comparison to untreated controls
How it was run: (§3)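 Crop injury rated visually in percent against untreated plants roughly 3 weeks after treatment (0% no effect, 100% plants dead). Compounds, as WP or EC with 0.5% additive in 600 l/ha water, were applied to the covering soil right after sowing; greenhouse growth. Suffixes a, b, c denote different dosages.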

[5] = system: Triticum aestivum (TRZAS); conditions: pre-emergence, crop plant compatibility, in comparison to untreated controls
How it was run: as §3

[6] = system: Digitaria sanguinalis (DIGSA); assay: Pre-emergence herbicidal action against DIGSA; conditions: dosage 320 g/ha
How it was run: as §1

Lolium rigidum (LOLRI) [7] = assay: Pre-emergence herbicidal action against LOLRI; conditions: dosage 320 g/ha
How it was run: as §1

[8] = system: Verconica persica (VERPE); assay: Post-emergence herbicidal action against VERPE
How it was run: as §2

[9] = system: Matricaria inodora (MATIN); assay: Post-emergence herbicidal action against MATIN; conditions: dosage 320 g/ha
How it was run: as §2

[10] = system: Pharbitis purpurea (PHBPU); assay: Post-emergence herbicidal action against PHBPU
How it was run: as §2

Oryza sativa (ORYSA) [11] = conditions: crop plant compatibility, effect in comparison to untreated controls
How it was run: (§4)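 Percent effect on the crop was judged by eye against untreated controls, where 0% means like control and 100% means dead plants. Plants had been sprayed post-emergence at the one-leaf stage and then kept under optimum greenhouse conditions for about 3 weeks.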

Zea mays (ZEAMX) [12] = conditions: crop plant compatibility, effect vs untreated controls
How it was run: as §4

[13] = system: Matricaria inodora (MATIN); assay: Pre-emergence herbicidal action against MATIN; conditions: dosage 320 g/ha
How it was run: as §1

[14] = system: Pharbitis purpurea (PHBPU); assay: Pre-emergence herbicidal action against PHBPU; conditions: dosage 320 g/ha
How it was run: as §1

Setaria viridis (SETVI) [15] = assay: Post-emergence herbicidal action against SETVI
How it was run: as §2

Oryza sativa (ORYSA) [16] = conditions: pre-emergence, crop plant compatibility, in comparison to untreated controls
How it was run: as §3

Setaria viridis (SETVI) [17] = assay: Pre-emergence herbicidal action against SETVI; conditions: dosage 320 g/ha
How it was run: as §1

[18] = system: Polygonum convolvulus (POLCO); assay: Pre-emergence herbicidal action against POLCO
How it was run: as §1

[19] = system: Echinochloa crus-galli (ECHCG); assay: Pre-emergence herbicidal action against ECHCG; conditions: dosage 320 g/ha
How it was run: as §1

Lolium rigidum (LOLRI) [20] = assay: Post-emergence herbicidal action against LOLRI; conditions: dosage 320 g/ha
How it was run: as §2

Avena fatua (AVEFA) = assay: Post-emergence herbicidal action against AVEFA; conditions: 320 g/ha, visual rating about 3 weeks after treatment
How it was run: as §2

[21] = system: Triticum aestivum (TRZAS); conditions: crop plant compatibility, effect vs untreated controls
How it was run: as §4

[22] = system: Verconica persica (VERPE); assay: Pre-emergence herbicidal action against VERPE; conditions: dosage 320 g/ha
How it was run: as §1

[23] = system: Echinochloa crus-galli (ECHCG); assay: Post-emergence herbicidal action against ECHCG; conditions: dosage 320 g/ha
How it was run: as §2

Viola tricolor (VIOTR) [24] = assay: Post-emergence herbicidal action against VIOTR; conditions: 320 g/ha
How it was run: as §2

[25] = system: Alopecurus myosuroides (ALOMY); assay: Post-emergence herbicidal action against ALOMY; conditions: 320 g/ha, visual rating about 3 weeks after treatment vs untreated controls (100% = plants have died, 0% = like control plants)
How it was run: as §2

Viola tricolor (VIOTR) [26] = assay: Pre-emergence herbicidal action against VIOTR; conditions: 320 g/ha, Viola tricolor
How it was run: as §1

[27] = 320 g/ha, visual rating about 3 weeks after treatment

Structure (SMILES)	Pre-emergence action against AMARE in % [1]	Post-emergence action against AMARE in % [2, 27]	Pre-emergence action against ZEAMX in % (Zea mays (ZEAMX) [4]; 80 g/ha)	Pre-emergence action against TRZAS in % ([5]; 80 g/ha)	Pre-emergence action against LOLRI in % (Lolium rigidum (LOLRI) [7])	Post-emergence action against VERPE in % ([8]; 320 g/ha, VERPE)	Post-emergence action against PHBPU in % ([10]; dosage 320 g/ha)	Post-emergence action against ORYSA in % (Oryza sativa (ORYSA) [11]; 80 g/ha)	Post-emergence action against ORYSA in % (Oryza sativa (ORYSA) [11]; 320 g/ha)	Post-emergence action against ZEAMX in % (Zea mays (ZEAMX) [12]; 80 g/ha)	Pre-emergence action against MATIN in % [13]	Pre-emergence action against PHBPU in % [14]	Post-emergence action against SETVI in % (Setaria viridis (SETVI) [15]; dosage 320 g/ha)	Pre-emergence action against ORYSA in % (Oryza sativa (ORYSA) [16]; 80 g/ha)	Pre-emergence action against SETVI in % (Setaria viridis (SETVI) [17])	Post-emergence action against LOLRI in % (Lolium rigidum (LOLRI) [20])	Post-emergence action against VERPE in % ([8]; dosage 80 g/ha)	Post-emergence action against PHBPU in % ([10]; dosage 80 g/ha)	Post-emergence action against TRZAS in % ([21]; 80 g/ha)	Pre-emergence action against ORYSA in % (Oryza sativa (ORYSA) [16]; 320 g/ha)	other results
O=C(O)COc1nn(-c2ccccn2)c(-c2ccc(Cl)nc2)c1Cl [Example I-236]	80%	80%	20%	20%	90%	80%	80%	0%	0%	0%	–	–	–	–	–	–	–	–	–	–	Post-emergence action against POLCO in % [3]: 80%; Pre-emergence action against DIGSA in % [6]: 90%; Post-emergence action against MATIN in % [9]: 80%
CCOC(=O)COc1nn(-c2cccc(C)n2)c(-c2ccc(F)nc2)c1Cl [Example I-352]	90%	80%	–	10%	80%	80%	90%	20%	–	–	90%	80%	80%	20%	90%	80%	80%	90%	10%	–	Pre-emergence action against POLCO in % ([18]; dosage 80 g/ha): 80%; Pre-emergence action against POLCO in % ([18]; dosage 320 g/ha): 90%; Pre-emergence action against ECHCG in % [19]: 90%; Post-emergence action against AVEFA in % (Avena fatua (AVEFA)): 80%; Pre-emergence action against VERPE in % [22]: 80%; Post-emergence action against ECHCG in % [23]: 80%
COC(=O)[C@H](C)NC(=O)COc1nn(-c2ccnc(F)c2)c(-c2ccc(F)nc2)c1Br [III-28]	80%	80%	0%	0%	–	–	–	0%	0%	0%	–	–	–	0%	–	–	–	–	–	10%	Post-emergence action against AMARE in % ([2]; 80 g/ha, visual rating about 3 weeks after treatment vs untreated controls (100% = plants have died, 0% = like control plants)): 80%; Pre-emergence action against ZEAMX in % (Zea mays (ZEAMX) [4]; 320 g/ha): 10%; Post-emergence action against ZEAMX in % (Zea mays (ZEAMX) [12]; 320 g/ha): 0%; Pre-emergence action against VERPE in % [22]: 80%
O=C(O)COc1nn(-c2ccnc(F)c2)c(-c2ccc(F)nc2)c1Br [III-02]	80%	80%	20%	0%	–	–	–	0%	20%	10%	–	–	–	0%	80%	–	–	–	20%	0%	Pre-emergence action against TRZAS in % ([5]; 320 g/ha): 20%; Post-emergence action against ZEAMX in % (Zea mays (ZEAMX) [12]; 320 g/ha): 20%
COC(=O)CCOC(=O)COc1nn(-c2cccc(C)n2)c(-c2ccc(F)nc2)c1Br [Example I-278]	80%	–	0%	0%	80%	90%	80%	0%	10%	20%	80%	80%	90%	0%	100%	80%	80%	80%	0%	–	Post-emergence action against ECHCG in % [23]: 80%
CCOC(=O)COc1nn(-c2ccncc2)c(-c2ccc(F)nc2)c1Br [III-08]	80%	80%	–	0%	–	–	–	0%	0%	–	–	–	–	0%	–	–	–	–	0%	0%	Post-emergence action against VIOTR in % (Viola tricolor (VIOTR) [24]): 80%; Post-emergence action against POLCO in % [3]: 80%; Pre-emergence action against TRZAS in % ([5]; 320 g/ha): 0%; Post-emergence action against ALOMY in % [25]: 80%; Pre-emergence action against VIOTR in % (Viola tricolor (VIOTR) [26]): 90%
COC(=O)CNC(=O)COc1nn(-c2cccc(C)n2)c(-c2ccc(F)nc2)c1Br [Example I-357]	–	–	20%	10%	–	–	80%	0%	10%	0%	–	–	80%	20%	–	–	–	80%	10%	20%	Pre-emergence action against TRZAS in % ([5]; 320 g/ha): 10%; Post-emergence action against ZEAMX in % (Zea mays (ZEAMX) [12]; 320 g/ha): 10%; Post-emergence action against TRZAS in % ([21]; 320 g/ha): 10%
COCCOC(=O)COc1nn(-c2cccc(C)n2)c(-c2ccc(F)nc2)c1Cl [Example I-279]	–	–	–	20%	80%	90%	80%	10%	–	–	80%	100%	80%	0%	90%	80%	80%	80%	10%	–	Post-emergence action against SETVI in % (Setaria viridis (SETVI) [15]; dosage 80 g/ha): 80%; Pre-emergence action against POLCO in % ([18]; dosage 320 g/ha): 80%; Pre-emergence action against VERPE in % [22]: 80%; Post-emergence action against ECHCG in % [23]: 80%

Reference: patent US20240041042A1, “1-(PYRIDYL)-5-AZINYLPYRAZOLE DERIVATIVES, AND THEIR USE FOR CONTROL OF UNDESIRED PLANT GROWTH” (Bayer Aktiengesellschaft, priority 2020, published 2024)
